Measurements taken from patent US10407466B2 (Apellis Pharmaceuticals, Inc., priority 2005, dated 2019).
Where two headings read alike, the source gives them in different places. Marks after values point to notes of the source that are not given here. Bridge positions count the residues as written; N and C are the ends. Square brackets hold non-standard residues; d marks the D form. 2Nal = N[C@@H](Cc1ccc2ccccc2c1)C(=O)O

Tests used:
[1] = Half-life in vitro in the vitreous; type: in vitro ADME
Procedure: The inventors' calculations establish, for the first time, the feasibility of substantially inhibiting C3 activation at levels at or above those expected to be present in the vitreous of a subject with wet ARMD by sustained intravitreal delivery of amounts as little as 5 μg/day of a therapeutic agent, which amounts may, according to the invention, be delivered by intravitreal implant technology over prolonged periods of time (as described further below). The inventors' calculations also establish, for the first time, the feasibility of substantially inhibiting C3 activation at levels at or above those expected to be present in the vitreous of a subject with dry ARMD by sustained intravitreal delivery of amounts as low as 2 μg/day of a therapeutic agent, which amounts may be delivered over prolonged periods of time by intravitreal implant technology according to the present invention.

non-primate C3 = conditions: reported; cited from earlier work
[2] = in vivo; cited from earlier work
[3] = system: choroidal neovascularization (CNV) in C57BL/6 mice; assay: Laser-induced CNV in a mouse model, intravitreal injection; type: in vivo
Excerpt: C57BL/6 mice (The Jackson Laboratory) were anesthetized with a mixture of ketamine/xylazine (8:1) and the pupils were dilated with a single drop of 1% tropicamide. Krypton red laser photocoagulation (50-μm spot size, 0.05 s duration, 250 mW) will be used to generate laser spots in surrounding the optic nerve by using a hand-held coverslip as a contact lens. Formation of a bubble at the laser spot indicated rupture of Bruch's membrane. Multiple laser spots were generated in each eye.
Different groups of mice were injected with different quantities of this molecule or of mouse albumin (as a control) to determine the effect of dosage on the efficacy and toxicity of VCP. Briefly, after anesthesia and dilation of the pupil, the anterior chamber was entered via the limbus with a 28-gauge needle to decompress the eye. Under an operating microscope, which allows visualization of the retina, a 32-gauge (blunt) needle was passed through a scleral incision, just behind the limbus, into the vitreous cavity.
Seven days after CNV induction incidence of CNV was determined. Briefly, the mice were perfused with a FITC-dextran (Sigma-Aldrich) solution just prior to sacrifice. After the eyes were excised and fixed for 1 h in 10% phosphate-buffered formalin, RPE-choroid-scleral flat mounts were prepared as follows. The cornea and the lens were removed and the neurosensory retina carefully dissected from the eyecup. Five radial cuts were from the edge of the eyecup to the equator; the sclera-choroidretinal pigment epithelium (RPE) complex was flat-mounted, with the sclera facing down, on a glass slide in Aquamount. The flat mounts were stained with an anti-elastin specific monoclonal antibody (Sigma-Aldrich) and then with a CY3-conjugated secondary antibody (Sigma-Aldrich) at a suitable concentration, e.g., at a 1/200 dilution of a 1.0 mg/ml stock solution. Mounts were observed under confocal microscopy (LSM510, Zeiss). The prominent neovascular growth stained green whereas the underlying elastin in the Bruch's membrane stained red within a laser spot. Images were analyzed with the image analysis software AxioVision (Zeiss). The amount of CNV was determined by measuring the total green-fluorescent surface area in each picture. A mean green-fluorescent area was obtained for the various groups and compared using student t-test for comparisons between groups and ANOVA for comparison among multiple groups. […] Deposition of a variety of different complement components is also measured using immunological techniques and/or RT-PCR.
Seven days after CNV induction, incidence of CNV was determined. Just prior to sacrifice, the mice were perfused with a FITC-dextran (Sigma-Aldrich) solution. After the eyes were excised and fixed in 10% phosphate-buffered formalin, RPE-choroid-scleral flat mounts were prepared and stained with an anti-elastin specific monoclonal antibody (Sigma-Aldrich) and then with a CY3-conjugated secondary antibody (Sigma-Aldrich). Mounts were observed under confocal microscopy (LSM510, Zeiss). The prominent neovascular growth stained green whereas the underlying elastin in the Bruch's membrane stained red within a laser spot. […] Images were analyzed with the image analysis software AxioVision (Zeiss). The amount of CNV was determined by measuring the total green-fluorescent surface area in each picture. A mean green-fluorescent area was obtained for the various groups and compared using student t-test for comparisons between groups and ANOVA for comparison among multiple groups. Results are described in Table 2 and in the graph in FIG. 4.

Molecule: CC[C@H](C)[C@H](NC(C)=O)C(=O)N[C@H]1CSSC[C@@H](C(=O)N[C@H](C(N)=O)[C@@H](C)O)NC(=O)[C@H](CCCNC(=N)N)NC(=O)[C@H](Cc2cnc[nH]2)NC(=O)[C@H](C)NC(=O)CNC(=O)[C@H](Cc2c[nH]c3ccccc23)NC(=O)[C@H](CC(=O)O)NC(=O)[C@H](CCC(N)=O)NC(=O)[C@H](Cc2cn(C)c3ccccc23)NC(=O)[C@H](C(C)C)NC1=O [Ac-V4(1-MeW)/H9A]
- half-life [1]: ~6.9 h

Molecule: CC[C@H](C)[C@H](N)C(=O)N[C@H]1CSSC[C@@H](C(=O)N[C@H](C(N)=O)[C@@H](C)O)NC(=O)[C@H](CCCN=C(N)N)NC(=O)[C@H](Cc2cnc[nH]2)NC(=O)[C@H](Cc2cnc[nH]2)NC(=O)CNC(=O)[C@H](Cc2c[nH]c3ccccc23)NC(=O)[C@H](CC(=O)O)NC(=O)[C@H](CCC(N)=O)NC(=O)[C@H](C(C)C)NC(=O)[C@H](C(C)C)NC1=O [compstatin]
- affinity for non-primate C3 compared with human or non-human primate C3 (non-primate C3): lower
- half-life [2]: < 0.25 h
- Mean Difference (I-J), FldAreaGreen ([3]; I = Compstatin 30 ug, J = VCP 30 ug, day 7): −317.4
- Mean Difference (I-J), FldAreaGreen ([3]; I = Mouse Albumin Control, J = test agent 30 ug/eye, day 7): 3286*
- Mean Difference (I-J), FldAreaGreen ([3]; I = No-treatment control, J = test agent 30 ug/eye, green-fluorescent CNV area, day 7, Tamhane): 5195*
- Mean Difference (I-J), FldAreaGreen ([3]; I = test agent 30 ug/eye, J = Mouse Albumin Control, day 7): −3286*
- Mean Difference (I-J), FldAreaGreen ([3]; I = test agent 30 ug/eye, J = No-treatment control, day 7): −5195*
- Mean Difference (I-J), FldAreaGreen ([3]; I = test agent 30 ug/eye, J = VCP 10 ug, day 7): −5862*

Molecule: Ac-ICV(2-Nal)QDWGAHRCT-CONH2 (Ac-ICV[2Nal]QDWGAHRCT-NH2; disulfide 2-12 (inferred)) [Ac-V4(2-Nal)/H9A]
- mean area of CNV relative to either no treatment or administration of albumin ([3]; 30 μg intravitreal, 24 hrs after laser induction, seven days after CNV induction): statistically significant reduction
- effectiveness compared with VCP on a μg basis ([3]; 30 μg/eye, difference not statistically significant at these sample sizes): somewhat more effective than VCP
- development of CNV in an animal model ([3]; summary of Example 1): effective in significantly inhibiting the development of CNV
